Reference: patent publication US10221163B2 (priority 2015, dated 2019)
Like-named read-outs stand apart in the source and are kept apart here.

How the values were obtained:
IMP-1 = IMP-1 (Serratia marcescens, UniProt P52699); assay: biochemical; type: biochemical; conditions: fluorescence assay, CCF2-FA substrate, 2 pM enzyme, 2 hours at 25° C.; read-out: IMP-1 IC50
Summary of the method: (§1)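 Fluorescence assay, CCF2-FA substrate (cephalosporin core linking 7-hydroxycoumarin to fluorescein); inhibitor + MBL + substrate, 2 h, 25° C. IC50 by 4-parameter fit, semi-log plot.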

NDM-1 = NDM-1 (Klebsiella pneumoniae, UniProt C7C422); assay: biochemical; type: biochemical; conditions: fluorescence assay, CCF2-FA substrate, 1 pM enzyme, 2 hours at 25° C.; read-out: NDM-1 IC50
Sequence of NDM-1 (C7C422 whole entry, looked up, species assumed): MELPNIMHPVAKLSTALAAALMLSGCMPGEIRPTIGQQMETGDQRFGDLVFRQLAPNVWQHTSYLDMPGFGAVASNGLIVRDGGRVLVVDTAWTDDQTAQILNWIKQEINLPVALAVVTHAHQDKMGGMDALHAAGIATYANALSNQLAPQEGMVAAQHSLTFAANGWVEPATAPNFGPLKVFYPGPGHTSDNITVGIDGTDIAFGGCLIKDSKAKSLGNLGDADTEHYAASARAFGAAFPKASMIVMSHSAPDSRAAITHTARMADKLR
Summary of the method: as §1

[1] = test system: Pseudomonas aeruginosa efflux− (MB9799), IMP-1; type: cell-based; conditions: concentration restoring susceptibility to imipenem at 2 μg/mL in the presence of a class A, C, D serine β-lactamase inhibitor closely related to relebactam
Summary of the method: (§2)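 PAO1 pair, broth microdilution; fixed β-lactam (imipenem/ceftazidime) at ~CLSI breakpoint + fixed class A/C BLI for AmpC; serial MBLi titration; endpoint = MBLi conc. restoring susceptibility; MB9798:MB9799 ratio = efflux liability.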

[2] = test system: Pseudomonas aeruginosa MB9798 vs MB9799; conditions: ratio MITC95 PA_9798/MITC95 PA_9799
Summary of the method: as §2

[3] = test system: Serratia marcescens expressing IMP-1 (CL5741); type: cell-based; conditions: with imipenem 1 μg/ml; 95% inhibition of bacterial growth
Summary of the method: (§3)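 Growth by absorbance after 22–24 h at 35°C defined the read-out, with imipenem fixed at 1 μg/ml alongside compound. Inocula came from overnight blood-agar colonies at 35°C, resuspended in saline and diluted 1:100 in 1.1×CAMHB.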

[4] = test system: Escherichia coli expressing NDM-1 (CLB30005, CLB30016); type: cell-based; conditions: with imipenem 1 μg/ml; 95% inhibition of bacterial growth
Summary of the method: as §3

[5] = test system: Klebsiella pneumoniae expressing VIM-1 (IHMA599644); type: cell-based; conditions: with imipenem 1 μg/ml; 95% inhibition of bacterial growth
Summary of the method: as §3

VIM-1 = VIM-1 (Pseudomonas aeruginosa (strain ATCC 15692 / DSM 22644 / CIP 104116 / JCM 14847 / LMG 12228 / 1C / PRS 101 / PAO1), UniProt A0A0F7KYQ8); assay: biochemical; conditions: CCF2-FA substrate, 30 pM enzyme, 2 hours at 25° C.
Summary of the method: as §1

[6] = test system: Pseudomonas aeruginosa efflux+ (MB9798), IMP-1; type: cell-based; conditions: concentration restoring susceptibility to imipenem at 2 μg/mL in the presence of a class A, C, D serine β-lactamase inhibitor closely related to relebactam
Summary of the method: as §2

[7] = fluorescence assay, read-out: VIM-1 IC50

Sequence of IMP-1 (P52699 whole entry, looked up, species assumed): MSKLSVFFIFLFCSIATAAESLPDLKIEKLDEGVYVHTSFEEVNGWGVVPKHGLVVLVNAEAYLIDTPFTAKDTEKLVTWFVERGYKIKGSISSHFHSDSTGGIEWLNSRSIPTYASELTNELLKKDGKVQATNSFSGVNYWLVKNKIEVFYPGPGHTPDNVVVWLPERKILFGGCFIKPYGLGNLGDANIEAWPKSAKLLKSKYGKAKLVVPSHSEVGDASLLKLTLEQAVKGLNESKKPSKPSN

| SMILES | IC50 (IMP-1) [nM] | IC50 (NDM-1) [nM] | P. aeruginosa expressing IMP-1, efflux − (MB9799) MITC95 [1] [µM] | Efflux ratio [2] | Serratia marcescens expressing IMP-1 (CL5741) MITC95 [3] [µM] | Escherichia coli expressing NDM-1 (CLB30016) MITC95 [4] [µM] | Klebsiella pneumoniae expressing VIM-1 (IHMA599644) MITC95 [5] [µM] | IC50 (VIM-1; VIM-1 IC50, fluorescence assay) [nM] | P. aeruginosa expressing IMP-1, efflux + (MB9798) MITC95 [6] [µM] | IC50 (VIM-1; [7]) [nM] |
| --- | --- | --- | --- | --- | --- | --- | --- | --- | --- | --- |
| Cn1nnc2ccc(-c3ccc(S(=O)(=O)N[C@@H]4CCNC4)c(S(N)(=O)=O)c3-c3nnn[nH]3)cc21 [Example 134, (R)-4-(1-methyl-1H-benzo[d][1,2,3]triazol-6-yl)-N1-(pyrrolidin-3-yl)-3-(1H-tetrazol-5-yl)benzene-1,2-disulfonamide] | 2.07 | 0.301 | 1.563 | 15.99 | 3.125 | 1.563 | 3.125 | 0.14 | 25 | – |
| NS(=O)(=O)c1ccc(-c2ccc(S(=O)(=O)N[C@@H]3CCNC3)c(S(N)(=O)=O)c2-c2nnn[nH]2)cc1 [Example 135, (R)-N4-(pyrrolidin-3-yl)-2-(1H-tetrazol-5-yl)-[1,1′-biphenyl]-3,4,4′-trisulfonamide] | 0.229 | 0.136 | 0.7813 | 1.00 | 1.563 | 1.563 | 1.563 | – | 0.7813 | 0.107 |
| CS(=O)(=O)Nc1ccc(-c2ccc(S(=O)(=O)N[C@@H]3CCNC3)c(S(N)(=O)=O)c2-c2nnn[nH]2)cc1 [Example 136, (R)-4′-(methylsulfonamido)-N4-(pyrrolidin-3-yl)-2-(1H-tetrazol-5-yl)-[1,1′-biphenyl]-3,4-disulfonamide] | 0.0755 | 0.0368 | 0.7813 | 2.00 | 3.125 | 1.563 | 1.563 | – | 1.563 | 0.105 |
| NC(=O)c1ccc(-c2ccc(S(=O)(=O)N[C@@H]3CCNC3)c(S(N)(=O)=O)c2-c2nnn[nH]2)cc1 [Example 137, (R)-4′-(N-(pyrrolidin-3-yl)sulfamoyl)-3′-sulfamoyl-2′-(1H-tetrazol-5-yl)-[1,1′-biphenyl]-4-carboxamide] | 0.265 | 0.126 | 0.7813 | 1.00 | 3.125 | 3.125 | 3.125 | – | 0.7813 | 0.157 |
| NS(=O)(=O)c1c(S(=O)(=O)N[C@@H]2CCNC2)ccc(-c2ccc3c(c2)C(=O)NC3)c1-c1nnn[nH]1 [Example 138, (R)-4-(3-oxoisoindolin-5-yl)-N1-(pyrrolidin-3-yl)-3-(1H-tetrazol-5-yl)benzene-1,2-disulfonamide] | 0.275 | 0.124 | 1.563 | 1.00 | 3.125 | 3.125 | 3.125 | – | 1.563 | 0.15 |
| NS(=O)(=O)c1c(S(=O)(=O)N[C@@H]2CCNC2)ccc(-c2cccc3cn[nH]c23)c1-c1nnn[nH]1 [Example 139, (R)-4-(1H-indazol-7-yl)-N1-(pyrrolidin-3-yl)-3-(1H-tetrazol-5-yl)benzene-1,2-disulfonamide] | 0.41 | 0.0582 | 0.7813 | 1.00 | 1.563 | 0.7813 | 3.125 | 0.141 | 0.7813 | – |
| NS(=O)(=O)c1c(S(=O)(=O)N[C@@H]2CCNC2)ccc(-c2cnc3ccccn23)c1-c1nnn[nH]1 [Example 140, (R)-4-(imidazo[1,2-a]pyridin-3-yl)-N1-(pyrrolidin-3-yl)-3-(1H-tetrazol-5-yl)benzene-1,2-disulfonamide] | 0.779 | 0.0867 | 0.7813 | 2.00 | 1.563 | 0.7813 | 1.563 | – | 1.563 | 0.111 |
| C[C@H]1NC(=O)O[C@H]1c1ccc(-c2ccc(S(=O)(=O)N[C@@H]3CCNC3)c(S(N)(=O)=O)c2-c2nnn[nH]2)cc1 [Example 141, 4′-((4R,5S)-4-methyl-2-oxooxazolidin-5-yl)-N4-((R)-pyrrolidin-3-yl)-2-(1H-tetrazol-5-yl)-[1,1′-biphenyl]-3,4-disulfonamide] | 0.0408 | 0.0186 | 1.563 | 1.00 | 6.25 | 3.125 | 6.25 | – | 1.563 | 0.0623 |
| Nc1nc2c(-c3ccc(S(=O)(=O)N4CCNCC4)c(S(N)(=O)=O)c3-c3nn[nH]n3)cccc2s1 [Example 142, 3-(2-Aminobenzo[d]thiazol-4-yl)-6-(piperazin-1-ylsulfonyl)-2-(2H-tetrazol-5-yl)benzenesulfonamide] | 0.636 | 0.185 | 1.172 | 1.33 | 1.563 | 3.906 | 3.125 | – | 1.563 | 0.558 |
| Nc1nc2c(-c3ccc(S(N)(=O)=O)c(S(N)(=O)=O)c3-c3nn[nH]n3)cccc2s1 [Example 143, 4-(2-aminobenzo[d]thiazol-4-yl)-3-(2H-tetrazol-5-yl)benzene-1,2-disulfonamide] | 0.266 | 0.0849 | 1.563 | 0.50 | 1.563 | 3.125 | 12.5 | – | 0.7813 | 0.22 |
